Assay results as given in ChEMBL document CHEMBL4342474, “Scaffold and Parasite Hopping: Discovery of New Protozoal Proliferation Inhibitors” (ACS Med Chem Lett, 2020).

Experiments:
Trypanosoma cruzi [1] = assay: Antitrypanosomal activity against Trypanosoma cruzi Tulahuen trypomastigotes infected in mouse NIH/3T3 cells measured after 96 hrs by beta-galactosidase reporter gene assay; type: functional, organism-based; settings: NIH3T3, 96 h
Leishmania major = assay: Antileishmanial activity against Leishmania major amastigotes infected in mouse RAW 264.7 cells by luciferase reporter gene assay; type: functional, organism-based; settings: RAW264.7
Plasmodium falciparum = assay: Antiplasmodial activity against Plasmodium falciparum D6 measured after 72 hrs by SYBR green fluorescence dye based microplate reader analysis; type: functional, organism-based; settings: D6, 72 h
[2] = Selectivity index, ratio of TC50 for human HepG2 cells to EC50 for antileishmanial activity against Leishmania major amastigotes infected in mouse RAW 264.7 cells; type: toxicity, cell-based
[3] = Selectivity index, ratio of TC50 for human HepG2 cells to EC50 for antiplasmodial activity against Plasmodium falciparum D6; type: toxicity
Trypanosoma cruzi [4] = assay: Antitrypanosomal activity against Trypanosoma cruzi CaI-72 trypomastigotes infected in mouse C2C12 cells measured after 72 hrs by DAPI staining based assay; type: functional, organism-based; settings: CaI-72, C2C12, 72 h
Leishmania donovani = assay: Antileishmanial activity against Leishmania donovani infected in mouse B10R cells after 72 hrs by DAPI staining based assay; type: functional, organism-based
[5] = Selectivity index, ratio of TC50 for mouse C2C12 cells to EC50 for antitrypanosomal activity against Trypanosoma cruzi CaI-72 trypomastigotes infected in mouse C2C12 cells; type: toxicity, cell-based

| SMILES | EC50 (Trypanosoma cruzi [1]) | EC50 (Leishmania major) | EC50 (Plasmodium falciparum) | selectivity ratio [2] | selectivity ratio [3] | EC50 (Trypanosoma cruzi [4]) | EC50 (Leishmania donovani) | selectivity ratio [5] |
| --- | --- | --- | --- | --- | --- | --- | --- | --- |
| CN1CCN(c2nccc(Nc3ccc4c(Nc5cnccn5)ccnc4c3)n2)CC1 | > 50000 nM | 3300 nM | 180 nM | – | – | – | – | – |
| Cc1cncc(Nc2ccnc3cc(-c4cnc(N5CCCN(C)CC5)nc4)ccc23)n1 | – | 9200 nM | 19 nM | 2 | 947 | – | – | – |
| CN1CCCN(c2ncc(-c3ccc4c(Nc5cccnc5)ccnc4c3)cn2)CC1 | – | > 22000 nM | 25 nM | – | > 1320 | > 10000 nM | > 10000 nM | – |
| O=S(=O)(c1ccc(-c2ccc3nccc(NCCC4CCOCC4)c3c2)cc1)N1CCOCC1 | – | > 21000 nM | 75 nM | – | > 280 | 4700 nM | > 10000 nM | 1.3 |
| CN1CCCN(c2ncc(-c3ccc4c(Nc5cnccn5)ccnc4c3)cn2)CC1 | – | 24000 nM | 24 nM | – | – | 1200 nM | – | – |
| CN1CCN(c2ccc(Nc3ccc4c(Nc5cnccn5)ccnc4c3)cc2)CC1 | – | 7900 nM | 130 nM | – | – | – | – | – |
| COc1ccc(NC(=O)c2cc(F)c(N3CCCN(C)CC3)cc2F)cc1Cl | – | > 24000 nM | 4600 nM | – | > 5.2 | 5500 nM | – | 1.6 |
| CN1CCN(c2ncc(-c3ccc4/c(=N/c5cnccn5)ccn(C)c4c3)cn2)CC1 | – | 2300 nM | 180 nM | > 10 | 133 | > 10000 nM | > 10000 nM | – |
| CCCN1CCN(c2ncc(-c3ccc4c(Nc5cnccn5)ccnc4c3)cn2)CC1 | – | 4300 nM | 23 nM | – | – | 7600 nM | – | – |
| CN1CCN(c2ccnc(Nc3ccc4c(Nc5cnccn5)ccnc4c3)n2)CC1 | > 20000 nM | – | 54 nM | – | – | – | – | – |
| CN1CCN(c2ncc(-c3ccc4c(NCC5CCOCC5)ccnc4c3)cn2)CC1 | – | > 24000 nM | 26 nM | – | 615 | 1200 nM | 8700 nM | 3.2 |
| CC(C)(C)OC(=O)N1CCN(c2ncc(-c3ccc4c(Nc5cnccn5)ccnc4c3)cn2)CC1 | > 50000 nM | 350 nM | 150 nM | > 89 | > 207 | – | – | – |
| CN1C[C@H]2C[C@@H]1CN2c1ncc(-c2ccc3c(Nc4cnccn4)ccnc3c2)cn1 | – | 2600 nM | 52 nM | – | – | 6100 nM | – | – |
| CN1CCN(c2ncc(Nc3ccc4c(Nc5cnccn5)ccnc4c3)cn2)CC1 | 47000 nM | 1700 nM | 77 nM | 14 | 312 | – | – | – |
| Cc1cnc(Nc2ccnc3cc(-c4cnc(N5CCCN(C)CC5)nc4)ccc23)cn1 | – | > 23000 nM | 24 nM | – | – | – | – | – |
| CCn1cc/c(=N\c2cnccn2)c2ccc(-c3cnc(N4CCCN(C)CC4)nc3)cc21 | – | 23000 nM | 170 nM | > 1.5 | > 200 | 3000 nM | > 10000 nM | 1 |
| COc1ccc(NC(=O)c2ccc(-c3cccc(N4CCOCC4)c3)cc2O)cc1Cl | – | 360 nM | > 23000 nM | > 97 | – | > 10000 nM | > 10000 nM | – |
| COc1ccc(NC(=O)c2ccc(-c3cnc(N4CCCN(C)CC4)nc3)cc2O)cc1Cl | – | > 4300 nM | 88 nM | – | – | > 10000 nM | > 10000 nM | – |
| CN1CCN(c2ncc(-c3ccc4c(NC5CCOCC5)ccnc4c3)cn2)CC1 | – | > 25000 nM | 25 nM | – | 600 | > 10000 nM | 4000 nM | – |

| SMILES | EC50 (Trypanosoma cruzi [1]) | EC50 (Leishmania major) | EC50 (Plasmodium falciparum) | selectivity ratio [2] | selectivity ratio [3] | EC50 (Trypanosoma cruzi [4]) | EC50 (Leishmania donovani) | selectivity ratio [5] |
| --- | --- | --- | --- | --- | --- | --- | --- | --- |
| CN1CCCN(c2ncc(-c3ccc4c(Nc5ccccn5)ccnc4c3)cn2)CC1 | – | > 24000 nM | 39 nM | – | 487 | 1300 nM | > 10000 nM | 7.5 |
| CN1CC2(CCN(c3ncc(-c4ccc5c(Nc6cnccn6)ccnc5c4)cn3)C2)C1 | – | > 24000 nM | 58 nM | – | > 414 | 220 nM | – | 1.9 |
| CCN1CCN(c2ncc(-c3ccc4c(Nc5cnccn5)ccnc4c3)cn2)CC1 | – | 24000 nM | 29 nM | – | – | 7700 nM | – | – |
| CN1CCN(c2ccc(-c3ccc4c(Nc5cnccn5)ccnc4c3)cc2)CC1 | 6100 nM | > 23000 nM | 74 nM | – | – | – | – | – |
| CN1CCCN(S(=O)(=O)c2ccc(-c3ccc4c(Nc5ccc(OC(F)(F)F)cc5)ccnc4c3)cc2)CC1 | – | 220 nM | 140 nM | 7.3 | 11 | 130 nM | > 10000 nM | 40 |
| Cc1c(-c2cnc(N3CCN(C)CC3)nc2)ccc2c(Nc3cnccn3)ccnc12 | 25000 nM | > 24000 nM | 69 nM | – | – | – | – | – |
| CN1CCN(c2ncc(-c3ccc4c(NCCN5CCCC5)ccnc4c3)cn2)CC1 | – | > 24000 nM | 24 nM | – | – | 2100 nM | > 10000 nM | – |
| O=S(=O)(c1ccc(-c2ccc3nccc(NCCN4CCCC4)c3c2)cc1)N1CCOCC1 | – | > 21000 nM | 30 nM | – | 307 | 1900 nM | – | 0.89 |
| Cc1cc2c(Nc3cnccn3)ccnc2cc1-c1cnc(N2CCN(C)CC2)nc1 | 22000 nM | 1800 nM | 180 nM | 3.3 | 33 | – | – | – |
| CCCn1cc/c(=N\c2cnccn2)c2ccc(-c3cnc(N4CCCN(C)CC4)nc3)cc21 | – | 1500 nM | 87 nM | > 22 | > 379 | 2100 nM | > 10000 nM | 1.4 |
| COc1ccc(Nc2ccnc3cc(-c4cnc(N5CCCN(C)CC5)nc4)ccc23)cc1Cl | – | 1600 nM | 6 nM | 4.3 | 1130 | 80 nM | > 10000 nM | 12 |
| CN1CCN(c2ncc(-c3ccc4c(N[C@@H]5CCCC[C@H]5O)ccnc4c3)cn2)CC1 | – | > 2400 nM | 37 nM | – | – | > 10000 nM | > 10000 nM | – |
| CN1CCCN(S(=O)(=O)c2ccc(-c3ccc4c(Nc5ccc(Cl)cn5)ccnc4c3)cc2)CC1 | – | 1300 nM | 51 nM | 1.4 | 35 | 160 nM | > 10000 nM | 21 |
| CN1CCCN(c2ncc(-c3ccc4c(c3)ncc3c5ccccc5[nH]c43)cn2)CC1 | – | > 5000 nM | 46 nM | – | > 161 | 240 nM | – | 6.7 |
| CN1CCCN(c2ncc(-c3ccc(C(=O)Nc4cccc(Cl)c4F)c(O)c3)cn2)CC1 | – | > 2200 nM | 71 nM | – | > 310 | 3900 nM | – | 1.6 |
| c1cnc(Nc2ccnc3cc(-c4cnc(N5CCNCC5)nc4)ccc23)cn1 | > 50000 nM | > 5200 nM | 130 nM | – | > 300 | – | – | – |
| CN1CCC2(CCN(c3ncc(-c4ccc5c(Nc6cnccn6)ccnc5c4)cn3)C2)C1 (stereo not given) | – | > 23000 nM | 30 nM | – | 533 | 520 nM | – | 19 |
| CN1CCN(c2ncc(-c3ccc4c(NC5CCC(N(C)C)CC5)ccnc4c3)cn2)CC1 (stereo not given) | – | > 2200 nM | 53 nM | – | – | > 10000 nM | > 10000 nM | – |
